The text below walks through data of patent US6916852B2, “Method for regulation of microvascular tone” (University of Tennessee Research Foundation, priority 2003, dated 2005).

In data set [1] the test system is cannabinoid receptors. Particulars: cited from earlier work; for effect on blood pressure, intra-arterially administered (Adams): intra-arterial; for effect on blood pressure, intravenously administered (Adams): intravenous.
Data set [2] deals with cremaster arterioles. The data set can be described thus: Intravital microscopy of cremaster muscle arterioles. In kind it is in vivo, C57-BL mice. The procedure:
Male C57-BL mice age 7-8 weeks and weighing approximately 20 grams are anesthetized with an intramuscular injection of 100 to 150 microliters of a mixture of ketamine and xylazine (87 mg ketamine and 13 mg xylazine per ml) based on the weight of the individual animal. The body temperature was maintained at about 37° C. by convective heating. The animal is supinated, a midline incision is made in the ventrocervical region, and the underlying tissues are bisected laterally to expose the trachea. A tracheotomy is performed and the animal is intubated directly with PE50 tubing to facilitate ventilation. The wound is then closed.
The left rear limb is incised to expose the femoral neurovascular bundle and the femoral vein is isolated and catheterized with PE10 tubing attached to a syringe containing normal saline. The animal is then placed on a specially designed surgery board and the right testicle within the scrotum is oriented over a translumination observation window contained in the surgery board. The scrotum is irrigated with warmed (about 37° C.) physiological saline (4.3 mM NaHCO3, 126.4 mM NaCl, 0.9 mM KCl, 0.4 mM CaCl2, 0.2 mM MgSO4). The scrotum is incised medially and the underlying fascia is bluntly dissected to expose the testicle. The apical portion of the cremaster muscle is pinned distally on the surgery board and the cremaster muscle is incised along its long axis to expose the testicle. The testicle is then gently forced back into the inguinal canal, allowing the cremaster muscle to be pinned evenly around the translumination window.
All experiments are carried out using an industrial grade microscope (Nikon MM-11) with two light sources, bright field (OptiQuip 75 W xenon) and fluorescent (Nikon 150 W mercury). The primary camera assembly has a chilled charged coupled device (CCD) and controller (Hamamastu C5985). The secondary camera assembly has a CCD camera (MTI CCD72) in conjunction with an intensifier (MTI […]). Experiments are viewed on a video monitor and recorded on a digital video recorder for off-line processing.
The prepared animal, as described above in Examples 1 and 2, is placed on the stage of the microscope on the surgery board with the translumination window. Exposed tissues are irrigated with warmed physiological saline through which a N2/CO2 (95%/5%) mixture is bubbled. The tissue is allowed to equilibrate until normal blood flow is observed or perfusate flow stabilizes, during which time the tissue is scanned at 1-X for A1-A4 arterioles. The arterioles are then tested for physiological tone by the topical administration of 0.1 mM adenosine (positive control).
(§1) After the arteriole returns to resting diameter (about 10 minutes) the tissue is treated topically with test chemical drugs or the drugs are administered systemically and the responses of the arterioles are viewed at 20× magnification. Topical treatment is by directly applying a vehicle solution (1:1:18 stepantex:ethanol:saline) or a drug plus vehicle solution. Systemic treatments in the whole animal are administered through the femoral vein catheter. The arteriole is video recorded during the entire procedure for off-line analysis. The blood pressure is monitored throughout the procedure utilizing a 1.4 F (0.56 mm) Millar catheter pressure transducer inserted into the left ventricle via the aorta. Systolic and diastolic blood pressure, and heart rate are recorded. Drug dosing regimens for the animals are based on literature values or values experimentally determined via drug titration curves on a mg/kg basis.
The video images of Example 3 are analyzed off-line by first converting the digital AVI files into digital image files followed by analysis using MetaMorph software (Universal Imaging Co.) on a Dell Optiplex GX-1. Calibration of the software is done using a micrometer slide and measurements are defined in micrometers/pixel. […]

The conditions of data set [3]: rats subsequently bled; doubled from about 30 minutes; cited from earlier work.
Data set [4] deals with mesenteric arterioles. In words: Intravital microscopy of mesenteric arterioles. Particulars: topical. Format: in vivo, C57-BL mice. The procedure:
Animals as described in Example 1 are prepared for surgery as described in Example 1. The animal is supinated on the surgery board so that the ventral portion of the animal faces the observation window. Upon irrigation with warmed physiological saline, a midline incision is made through the linea alba. A loop of small intestine from the lower duodenal segment is extracted and pinned around the observation window, with the pins passing through the proximal mesentery and not through the intestine proper.
All experiments are carried out using an industrial grade microscope (Nikon MM-11) with two light sources, bright field (OptiQuip 75 W xenon) and fluorescent (Nikon 150 W mercury). The primary camera assembly has a chilled charged coupled device (CCD) and controller (Hamamastu C5985). The secondary camera assembly has a CCD camera (MTI CCD72) in conjunction with an intensifier (MTI […]). Experiments are viewed on a video monitor and recorded on a digital video recorder for off-line processing. […]
as §1, with “Topical treatment is by directly applying a vehicle solution (1:1:18 stepantex:ethanol:saline) or a drug plus vehicle solution. Systemic treatments in the whole animal are administered through the femoral vein catheter.” left out
The video images of Example 3 are analyzed off-line by first converting the digital AVI files into digital image files followed by analysis using MetaMorph software (Universal Imaging Co.) on a Dell Optiplex GX-1. […]
Data analysis is carried out using GraphPad, Prism software. […] Time course curves are fit using non-linear regression from which the rate of vessel constriction or dilation is calculated. […]

For data set [5] the following is noted: cited from earlier work; for changes in blood pressure or renal function (Dilger): therapeutic doses for 15 days, healthy young or elderly subjects.
Where [6] appears, read: systemically administered, 2 mg/kg NS-398.

Molecules are shown by their SMILES. Like-named read-outs stand apart in the source and are kept apart here.

On to `CCCCC/C=C\C/C=C\C/C=C\C/C=C\CCCC(=O)NCCO` [ANA, arachidonyl ethanolamide], for which, in data set [1] (in vivo), the “effect on blood pressure (Kunos, U.S. Pat. No. 5,939,429)” value is “causes hypotension”. In addition, the “change in cremaster arteriolar diameter (FIG. 5B)” value in data set [2] (systemically administered, by about 200 seconds post-administration) is recorded as “causes a dilatation of cremaster arterioles”. Also, the “change in cremaster arteriolar diameter (FIG. 5A)” value in data set [2] (topically administered, by about 200 seconds post-administration) was “causes a dilatation of cremaster arterioles”.

For `CCCCCCC(C)(C)c1cc(O)c2c(c1)OC(C)(C)[C@@H]1CC=C(CO)C[C@@H]21` [HU-210], the “survival time (Wagner)” value in data set [3] is roughly 60 min.

With `CS(=O)(=O)Nc1ccc([N+](=O)[O-])cc1OC1CCCCC1` [NS-398, N-(2-cyclohexyloxy-4-nitrophenyl) methane sulphonamide], in data set [2] (setting [6]), the “initial increase in arteriolar diameter (FIG. 2)” value is reported as roughly 8% and the “time to return to baseline diameter (FIG. 2)” value is no more than 3 min.

`CCCCCc1cc(O)c2c(c1)OC(C)(C)[C@@H]1CC=C(C)C[C@@H]21` [THC, Δ^8-tetrahydrocannabinol]: in data set [1], the “effect on blood pressure, intra-arterially administered (Adams)” value is “produced an increase in blood pressure indicative of vasoconstriction”; the “effect on blood pressure, intravenously administered (Adams)” value is “transient increase in blood pressure that lasted only about one minute and that was followed by a more prolonged hypotensive response”. The “effect on blood pressure, intravenously administered (Adams)” value in data set [1] (listed as Δ^8-tetrahydrocannabinol) was “caused decreases in blood pressure”. In addition, the “survival time (Wagner)” value in data set [3] is roughly 60 min. For the same molecule, in data set [4], the “duration of initial brief constriction (FIG. 4)” value is “less than 5 seconds”, the “response of mesenteric arterioles (FIG. 4)” value is “biphasic response” and the “time post administration of return to baseline (FIG. 4)” value is given as “about 100 seconds”. For the same molecule, the “time post-administration of return to baseline diameter (FIG. 3B)” value in data set [2] (systemic, 12 mg/kg THC alone) is reported as “about 30 seconds”. The “initial mild constriction of arterioles (FIG. 3B)” value in data set [2] (systemic, initial 100 seconds) is on record as “about 15%”. Besides, the “response of cremaster arterioles to topical application (FIG. 3A)” value in data set [2] (topical) is listed as “mirrors that of the response to systemic administration of THC”.

For `Nc1ncnc2c1ncn2[C@@H]1O[C@H](CO)[C@@H](O)[C@H]1O` [adenosine], the “change in arteriole diameter (FIG. 1B)” value in data set [2] (topical administration of adenosine, cremaster arteriole) is on record as “Dilation of the arteriole”.

Take `Cc1ccc(-c2cc(C(F)(F)F)nn2-c2ccc(S(N)(=O)=O)cc2)cc1` [celecoxib]: the “effect on blood pressure (Johnson)” value in data set [5] (patients, administered for six weeks) is recorded as “inconclusive”. In data set [5], the “changes in blood pressure or renal function (Dilger)” value was “not associated with significant changes in blood pressure or renal function”.

With `O=C(O)Cc1ccccc1Nc1c(Cl)cccc1Cl` [diclofenac], in data set [5], the “changes in blood pressure or renal function (Dilger)” value is listed as “not associated with significant changes in blood pressure or renal function”.

With `CS(=O)(=O)c1ccc(C2=C(c3ccccc3)C(=O)OC2)cc1` [rofecoxib], the “effect on blood pressure (Johnson)” value in data set [5] (in vivo) is reported as “found to elevate blood pressure”.

In the case of `CCCCCc1cc(O)c2c(c1)OC(C)(C)[C@@H]1CCC(C)=C[C@@H]21` [Δ^9-tetrahydrocannabinol], in data set [1], the “effect on blood pressure, intra-arterially administered (Adams)” value was “produced an increase in blood pressure indicative of vasoconstriction” and the “effect on blood pressure, intravenously administered (Adams)” value is “caused decreases in blood pressure”.
